Assay results: patent publication US20050112573A1, “Method of detecting toxic substance” (priority 2001, published 2005)

System: yeast genes (level of expressed mRNA)
Test: DNA chip analysis of expressed mRNA of yeast genes after 2 h culture with a toxic chemical substance
Format: cell-based, Saccharomyces cerevisiae S288C
Method: Yeast (Saccharomyces cerevtisiae S288C (α SUC2mal mel gap2 CUP1)) were cultured at 25° C. on YPD medium (yeast extract 1%, polypepton 2%, glucose 2%). One of toxic chemical substances was added to the cell at logarithmic growth phase, and the cell was further cultured for two hours. Cell was cultured without any chemical substance in the same condition, and was used as control. Concentrations of the chemical substances were defined to inhibit the growth of the yeast but not lead to death.
After the completion of cultivation, the culture was centrifuged to collect the cells. To the cells, sodium acetate buffer (50 mM sodium acetate, 10 mM EDTA, 1% SDS) was added, and the mixture was shaken at 65° C. for five minutes, followed by returning to room temperature, and obtaining the supernatant, which procedure was repeated two times. To the supernatant, ½ amount of a solution of phenol/chloroform was added, and the mixture was centrifuged to give a supernatant, which was added with an equal amount of chloroform, and the mixture was centrifuged to give a supernatant. To the supernatant, an equal amount of isopropanol containing 0.3 M sodium acetate was added, and the mixture was allowed to stand at room temperature for 30 minutes, after which the mixture was centrifuged to give a sediment of the whole RNAs. Seventy % ethanol was added to the sediment, and the mixture was again centrifuged to give a sediment, which was then dried and dissolved in water. mRNA was isolated from the whole RNAs as followings. In view of the fact that a poly A chain is attached to the 3′ terminus of mRNA, a polynucleotide having a poly T structure which was immobilized on the surface of latex beads was used to trap the mRNA, and then the mRNA was washed and eluted with spine column (Oligotex-dT30<Super>mRNA Purification Kit, Takara). Reverse transcription of the mRNA was conducted with a reverse transcriptase (Super Script II Reverse Transcriptase; catalogue No. 18064-014, GibcoBRL) using fluorescence-labeled nucleotides to give cDNAs that were introduced with Cy3-dUTP or Cy5-dUTP during the reverse transcription.
The labeled cDNAs were dissolved in TE buffer (10 mM Tris-HCl/1 mM EDTA, pH8.0), and the solution was dropped on the DNA chip containing the whole genes of yeast (DNA Chip Research Inc. Japan) so that the cDNAs were hybridized on the DNA chip at 65° C. for over 12 hours. The fluoresces intensity of the DNA chip was read with a scanner, and the ratio relative to the fluorescence intensity resulting from the absence of chemical substance was estimated as the following, which is shown in Tables 1 to 9: [formula]
In the Tables, “Intensity” indicated in the rightmost column is a value of the level of expressed mRNA of each gene in control cells as divided by the average level of the expressions of the whole genes.

## COc1cc(CNC(=O)CCCCC=CC(C)C)ccc1O [(12), 8-methyl-N-vanillyl-6-nonenamide]
Gene YDR133C
  The level of expressed mRNA in the presence of chemical substance/absence: YDR133C: 0.3
Gene YDR140W
  The level of expressed mRNA in the presence of chemical substance/absence: YDR140W: 1.1
Gene YDR221W
  The level of expressed mRNA in the presence of chemical substance/absence: YDR221W: 0.6
Gene YDR250C
  The level of expressed mRNA in the presence of chemical substance/absence: YDR250C: 0.8
Gene YDR271C
  The level of expressed mRNA in the presence of chemical substance/absence: YDR271C: 0.7
Gene YDR278C
  The level of expressed mRNA in the presence of chemical substance/absence: YDR278C: 0.6
Gene YDR281C
  The level of expressed mRNA in the presence of chemical substance/absence: YDR281C: 0.9
Gene YDR316W
  The level of expressed mRNA in the presence of chemical substance/absence: YDR316W: 0.6
Gene YDR338C
  The level of expressed mRNA in the presence of chemical substance/absence: YDR338C: 0.8
Gene YDR366C
  The level of expressed mRNA in the presence of chemical substance/absence: YDR366C: 0.6
Gene YDR380W
  level of expressed mRNA in the presence of chemical substance/in its absence: 0.4
Gene YDR410C
  level of expressed mRNA in the presence of chemical substance/in its absence: 0.9
Gene YDR421W
  The level of expressed mRNA in the presence of chemical substance/absence: YDR421W: 0.7
Gene YDR425W
  The level of expressed mRNA in the presence of chemical substance/absence: YDR425W: 1.1
Gene YDR485C
  The level of expressed mRNA in the presence of chemical substance/absence: YDR485C: 0.9
Gene YDR487C
  level of expressed mRNA in the presence of chemical substance/in its absence: 1.3
Gene YDR502C
  level of expressed mRNA in the presence of chemical substance/in its absence: 1.3
Gene YDR504C
  The level of expressed mRNA in the presence of chemical substance/absence: YDR504C: 0.7
Gene YEL011W
  level of expressed mRNA in the presence of chemical substance/in its absence: 1.5
Gene YEL020C
  level of expressed mRNA in the presence of chemical substance/in its absence: 0.8
Gene YEL044W
  The level of expressed mRNA in the presence of chemical substance/absence: YEL044W: 0.6
Gene YER026C
  level of expressed mRNA in the presence of chemical substance/in its absence: 1.7
Gene YER069W
  level of expressed mRNA in the presence of chemical substance/in its absence: 0.8
Gene YER092W
  The level of expressed mRNA in the presence of chemical substance/absence: YER092W: 0.9
Gene YER182W
  The level of expressed mRNA in the presence of chemical substance/absence: YER182W: 1.0
Gene YFL042C
  The level of expressed mRNA in the presence of chemical substance/absence: YFL042C: 0.9
Gene YFR015C
  level of expressed mRNA in the presence of chemical substance/in its absence: 0.4
Gene YFR026C
  The level of expressed mRNA in the presence of chemical substance/absence: YFR026C: 0.6
Gene YFR056C
  The level of expressed mRNA in the presence of chemical substance/absence: YFR056C: 0.5
Gene YGL001C
  level of expressed mRNA in the presence of chemical substance/in its absence: 0.9
Gene YGL022W
  level of expressed mRNA in the presence of chemical substance/in its absence: 0.7
Gene YGL039W
  level of expressed mRNA in the presence of chemical substance/in its absence: 1.3
Gene YGL041C
  The level of expressed mRNA in the presence of chemical substance/absence: YGL041C: 0.6
Gene YGL045W
  The level of expressed mRNA in the presence of chemical substance/absence: YGL045W: 1.1
Gene YGL057C
  The level of expressed mRNA in the presence of chemical substance/absence: YGL057C: 1.1
Gene YGL088W
  The level of expressed mRNA in the presence of chemical substance/absence: YGL088W: 0.6
Gene YGL104C
  level of expressed mRNA in the presence of chemical substance/in its absence: 1.1
Gene YGL126W
  level of expressed mRNA in the presence of chemical substance/in its absence: 0.6
Gene YGL134W
  level of expressed mRNA in the presence of chemical substance/in its absence: 0.9
Gene YGL154C
  level of expressed mRNA in the presence of chemical substance/in its absence: 0.9
Gene YGL183C
  The level of expressed mRNA in the presence of chemical substance/absence: YGL183C: 0.9
Gene YGL209W
  level of expressed mRNA in the presence of chemical substance/in its absence: 1.3
Gene YGL223C
  The level of expressed mRNA in the presence of chemical substance/absence: YGL223C: 0.9
Gene YGL253W
  level of expressed mRNA in the presence of chemical substance/in its absence: 1.2
Gene YGR038W
  The level of expressed mRNA in the presence of chemical substance/absence: YGR038W: 1.0
Gene YGR060W
  level of expressed mRNA in the presence of chemical substance/in its absence: 1.0
Gene YGR139W
  The level of expressed mRNA in the presence of chemical substance/absence: YGR139W: 0.5
Gene YGR156W
  The level of expressed mRNA in the presence of chemical substance/absence: YGR156W: 1.2
Gene YGR198W
  The level of expressed mRNA in the presence of chemical substance/absence: YGR198W: 0.7
Gene YGR210C
  The level of expressed mRNA in the presence of chemical substance/absence: YGR210C: 0.6
Gene YGR211W
  The level of expressed mRNA in the presence of chemical substance/absence: YGR211W: 0.6
Gene YGR237C
  The level of expressed mRNA in the presence of chemical substance/absence: YGR237C: 0.8
Gene YGR243W
  The level of expressed mRNA in the presence of chemical substance/absence: YGR243W: 1.2
Gene YGR250C
  The level of expressed mRNA in the presence of chemical substance/absence: YGR250C: 0.6
Gene YGR266W
  The level of expressed mRNA in the presence of chemical substance/absence: YGR266W: 0.6
Gene YGR277C
  The level of expressed mRNA in the presence of chemical substance/absence: YGR277C: 0.9
Gene YGR282C
  level of expressed mRNA in the presence of chemical substance/in its absence: 1.3
Gene YGR293C
  The level of expressed mRNA in the presence of chemical substance/absence: YGR293C: 1.0
